Source: DBAASP
Converted amounts (≈) assume the structure as drawn.

Legend:
Assay in all cases: ≥ marks a high value that may be exact or a test limit, other limits are often not marked, values filed in µg/mL are converted to µM
[1] = tested on: Staphylococcus aureus PCM 1944
[2] = tested on: Escherichia coli PCM 2057
Micrococcus luteus = tested on: Micrococcus luteus
[3] = tested on: Corynebacterium glutamicum ATCC 13032
Bacillus megaterium = tested on: Bacillus megaterium
[4] = tested on: Candida albicans ATCC 10231
[5] = tested on: Bacillus subtilis ATCC 23857
[6] = tested on: Escherichia coli ATCC 25922
Aureobasidium pullulans = tested on: Aureobasidium pullulans
[7] = tested on: Pseudomonas aeruginosa ATCC 27853
[8] = tested on: Staphylococcus aureus ATCC 9144
[9] = tested on: Escherichia coli DSM 1103
Escherichia coli D31 = tested on: Escherichia coli D31
[10] = tested on: Klebsiella pneumoniae DSM 681
[11] = tested on: Salmonella enterica subsp. enterica serovar Typhimurium ATCC 700408
Escherichia coli DC2 = tested on: Escherichia coli DC2
[12] = tested on: Micrococcus luteus ATCC 10240
[13] = tested on: Klebsiella pneumoniae K6 ATCC 700603
Escherichia coli BL21AI = tested on: Escherichia coli BL21AI
[14] = tested on: Staphylococcus aureus 113
[15] = tested on: Acinetobacter baumannii 9931
[16] = tested on: Klebsiella pneumoniae ATCC 700603
Escherichia coli 780 = tested on: Escherichia coli 780
[17] = tested on: Pseudomonas aeruginosa ATCC 9027
Staphylococcus aureus 75 = tested on: Staphylococcus aureus 75
[18] = tested on: Pseudomonas aeruginosa 50
[19] = tested on: Acinetobacter baumannii 97830
[20] = tested on: Staphylococcus epidermidis ATCC 12228
Escherichia coli 804 = tested on: Escherichia coli 804
[21] = tested on: Staphylococcus aureus ATCC 29213
[22] = tested on: Pseudomonas aeruginosa 73
[23] = tested on: Acinetobacter baumannii ATCC 19606

`C[C@@H]1NC(=O)[C@H](C)NC(=O)[C@H](CCCCN)NC(=O)[C@@H](N)CSSC[C@@H](C(=O)O)NC(=O)[C@H](Cc2ccccc2)NC1=O` [CKAAFC] showed an MIC [1] of at least 1560 µM and an MIC [2] of at least 1560 µM.

`C[C@H](NC(=O)[C@H](CCCCN)NC(=O)[C@H](Cc1c[nH]c2ccccc12)NC(=O)[C@H](Cc1c[nH]c2ccccc12)NC(=O)[C@H](Cc1c[nH]c2ccccc12)NC(=O)[C@@H]1CCCN1C(=O)[C@H](CCCCN)NC(=O)[C@H](CCCCN)NC(=O)CN)C(=O)N[C@@H](CCCCN)C(N)=O` [GKKPWWWKAK] gave an MIC (Micrococcus luteus) of 23.8 µM (≈ 31.3 µg/mL), an MIC [3] of 1.52 µM (≈ 2 µg/mL) and an MIC (Bacillus megaterium) of 0.761 µM (≈ 0.999 µg/mL). It also gave an MIC [4] of 23.8 µM (≈ 31.3 µg/mL), an MIC [5] of 2.97 µM (≈ 3.9 µg/mL) and an MIC [6] of 23.8 µM (≈ 31.3 µg/mL). The MIC (Aureobasidium pullulans) was 11.9 µM (≈ 15.6 µg/mL), the MIC [7] was 190 µM (≈ 250 µg/mL) and the MIC [8] was at least 95.1 µM.

`C[C@H](NC(=O)[C@H](CCCCN)NC(=O)[C@H](Cc1c[nH]c2ccccc12)NC(=O)[C@H](Cc1c[nH]c2ccccc12)NC(=O)[C@H](Cc1c[nH]c2ccccc12)NC(=O)[C@H](Cc1c[nH]c2ccccc12)NC(=O)[C@H](CCCCN)NC(=O)[C@H](CCCCN)NC(=O)CN)C(=O)N[C@@H](CCCCN)C(N)=O` [GKKWWWWKAK] was tested, and the MIC (Micrococcus luteus) was 11.1 µM (≈ 15.6 µg/mL), the MIC [3] was 5.56 µM (≈ 7.79 µg/mL) and the MIC (Bacillus megaterium) was 2.78 µM (≈ 3.9 µg/mL). For the same compound, the MIC [4] was 11.1 µM (≈ 15.6 µg/mL), the MIC [5] was 5.56 µM (≈ 7.79 µg/mL) and the MIC [6] was 44.5 µM (≈ 62.5 µg/mL). For the same compound, the MIC (Aureobasidium pullulans) was 5.56 µM (≈ 7.79 µg/mL), the MIC [7] was 89.1 µM (≈ 125 µg/mL) and the MIC [8] was at least 89.1 µM.

`CC[C@H](C)[C@H](NC(=O)[C@H](CCCN=C(N)N)NC(=O)[C@@H]1CCCN1C(=O)[C@H](Cc1cnc[nH]1)NC(=O)[C@@H]1CCCN1C(=O)[C@@H]1CCCN1C(=O)[C@H](CCCN=C(N)N)NC(=O)[C@@H]1CCCN1C(=O)[C@H](CCCN=C(N)N)NC(=O)[C@@H]1CCCN1C(=O)[C@@H](NC(=O)[C@H](Cc1ccc(O)cc1)NC(=O)[C@@H](NC(=O)[C@@H]1CCCN1C(=O)[C@H](CCCN=C(N)N)NC(=O)[C@H](CC(N)=O)NC(=O)[C@H](CC(N)=O)NC(=O)CN)C(C)C)[C@@H](C)CC)C(N)=O` [GNNRPVYIPRPRPPHPRI] gave an MIC [9] of 0.459 µM (≈ 0.98 µg/mL), an MIC (Escherichia coli D31) of 30 µM (≈ 64 µg/mL) and an MIC [10] of 7.31 µM (≈ 15.6 µg/mL). For the same compound, the MIC [11] was 0.936 µM (≈ 2 µg/mL), the MIC (Escherichia coli DC2) was 3.66 µM (≈ 7.81 µg/mL) and the MIC [12] was 0.459 µM (≈ 0.98 µg/mL). For the same compound, the MIC [13] was 3.74 µM (≈ 8 µg/mL) and the MIC (Escherichia coli BL21AI) was 0.229 µM (≈ 0.49 µg/mL).

For `CC[C@H](C)[C@H](NC(=O)[C@@H](NC(=O)[C@@H](N)CO)C(C)C)C(=O)NCC(=O)N[C@H]1CSSC[C@@H](C(=O)N[C@@H](Cc2ccccc2)C(=O)N[C@H](C(=O)N[C@@H](CCCCN)C(N)=O)C(C)C)NC(=O)[C@@H]2CCCN2C(=O)[C@H](CCCN=C(N)N)NC(=O)[C@@H]2CCCN2C(=O)[C@@H]2CCCN2C(=O)[C@H]([C@@H](C)CC)NC(=O)[C@H](CO)NC(=O)[C@H](Cc2ccccc2)NC(=O)[C@H]([C@@H](C)O)NC(=O)[C@H](Cc2c[nH]c3ccccc23)NC1=O` [SVIGCWTFSIPPRPCFVK], the MIC [1] was at least 491 µM and the MIC [2] was at least 491 µM.

With `NC(=O)[C@H](Cc1c[nH]c2ccccc12)NC(=O)[C@H](CCCN=C(N)N)NC(=O)[C@H](CCCN=C(N)N)NC(=O)[C@H](Cc1c[nH]c2ccccc12)NC(=O)[C@H](Cc1c[nH]c2ccccc12)NC(=O)[C@H](Cc1c[nH]c2ccccc12)NC(=O)[C@H](CCCN=C(N)N)NC(=O)[C@H](CCCN=C(N)N)NC(=O)[C@@H](N)Cc1c[nH]c2ccccc12` [WRRWWWRRW] the MIC [14] was 4 µM (≈ 6.29 µg/mL), the MIC [15] was 16 µM (≈ 25.2 µg/mL) and the MIC [16] was 16 µM (≈ 25.2 µg/mL). It also gave an MIC (Escherichia coli 780) of 16 µM (≈ 25.2 µg/mL), an MIC [5] of 4 µM (≈ 6.29 µg/mL) and an MIC [17] of 8 µM (≈ 12.6 µg/mL). The MIC (Staphylococcus aureus 75) was 8 µM (≈ 12.6 µg/mL), the MIC [18] was 16 µM (≈ 25.2 µg/mL) and the MIC [19] was 16 µM (≈ 25.2 µg/mL). The MIC [20] was 2 µM (≈ 3.15 µg/mL), the MIC (Escherichia coli 804) was at least 32 µM and the MIC [7] was 4 µM (≈ 6.29 µg/mL). The MIC [21] was 4 µM (≈ 6.29 µg/mL), the MIC [22] was 8 µM (≈ 12.6 µg/mL) and the MIC [23] was 16 µM (≈ 25.2 µg/mL).

`NC(=O)[C@H](Cc1c[nH]c2ccccc12)NC(=O)[C@H](CCCN=C(N)N)NC(=O)[C@H](Cc1c[nH]c2ccccc12)NC(=O)[C@H](Cc1c[nH]c2ccccc12)NC(=O)[C@H](Cc1c[nH]c2ccccc12)NC(=O)[C@H](CCCN=C(N)N)NC(=O)[C@@H](N)Cc1c[nH]c2ccccc12` [WRWWWRW] gave an MIC [14] of 4 µM (≈ 5.04 µg/mL), an MIC [15] of 8 µM (≈ 10.1 µg/mL) and an MIC [16] of 8 µM (≈ 10.1 µg/mL). It also gave an MIC (Escherichia coli 780) of 8 µM (≈ 10.1 µg/mL), an MIC [5] of 4 µM (≈ 5.04 µg/mL) and an MIC [17] of 32 µM (≈ 40.3 µg/mL). The MIC (Staphylococcus aureus 75) was 4 µM (≈ 5.04 µg/mL), the MIC [18] was 16 µM (≈ 20.2 µg/mL) and the MIC [19] was 8 µM (≈ 10.1 µg/mL). For the same compound, the MIC [20] was 2 µM (≈ 2.52 µg/mL), the MIC (Escherichia coli 804) was 8 µM (≈ 10.1 µg/mL) and the MIC [7] was 16 µM (≈ 20.2 µg/mL). For the same compound, the MIC [21] was 8 µM (≈ 10.1 µg/mL), the MIC [22] was at least 32 µM and the MIC [23] was 32 µM (≈ 40.3 µg/mL).
